Assay results published in patent US20020193283A1, “Inhibitors of prenyl-protein transferase” (priority 2000, published 2002).

Experiment: the assays disclosed below (unspecified, Examples 10-17)
Details: assays not specified

Cc1ncc(CN2CCN(C(=O)OC(C)(C)C)CC2)n1Cc1ccc(C#N)c(Oc2cccc(OCCO)c2)c1 [Example 1 Step G, 1-(tert-butoxycarbonyl)-4-[1-(3-((3-(2-hydroxyethoxy)phenyl)oxy)-4-cyanobenzyl)-2-methyl-5-imidazolylmethyl]piperazine]
activity in the assays disclosed below: active
